Data: patent US20260207563A1, “UREA COMPOUNDS AS ACTIVATORS OF POTASSIUM CHANNELS KV7.2/7.3 USEFUL IN THE TREATMENT OF CNS AND PNS DISORDERS” (ANGELINI PHARMA S.P.A., priority 2022, published 2026)

Biological target: T1, heteromeric KV7.2/KV7.3 channels (KCNQ2, KCNQ3) (Homo sapiens, UniProt O43525+O43526)
T1 construct: expressed in transfected cells; host or cells: CHO-K1
Assay: Automated patch-clamp (Sophion Qube 384) potency assay against KV7.2/KV7.3 channels
Type: cell-based
Settings: CHO-K1/Kv7.2/Kv7.3 cells; for EC50: EC50 from concentration-response of shift in Vhalf, 10 concentrations up to 30 μM, read-out: Kv7.2/7.3 EC50; for Kv7.2/7.3 ΔV1/2: maximal shift in the Vhalf from the top of the curve
Source text: Assessment of In Vitro Potency Against KV7.2/KV7.3 Channels
An automated patch-clamp assay on the Sophion Qube 384 was developed for potency testing to identify small molecule activators of heteromeric KV7.2/KV7.3 channels (KCNQ2, Uniprot ID 043526; KCNQ3, Uniprot 043525).
The cell line used was a stably transfected CHO-K1 cell line with constitutive KV7.2/KV7.3 expression.
CHO-K1/Kv7.2/Kv7.3 cells were maintained in the following culture media: • DMEM/F-12 with GlutaMAX™ (Gibco 31331-028), • 10% Fetal clone 2 serum (Perbio Science SH30066.03), • 1 mg/ml Geneticin™ selective antibiotic (G418, Invitrogen 1013027), and • 5 μg/ml BlasticidinS HCl (Invivogen Ant-bl-5).
On the day of the experiment, cells were resuspended in serum free media, counted and diluted to a final concentration of 3.5×10^6 cells per ml of media.
Cells were then placed onto the Sophion Qube 384 and rested for a minimum of 1 hour.
The following solutions were used for recording: • extracellular solution (in mM): 145 NaCl, 4 KCl, 1 MgCl2, 2 CaCl2), 10 HEPES, 10 glucose, pH 7.4, 315-320 mOsm. • intracellular solution (in mM): 120 KCl, 5.74 CaCl2), 1.75 MgCl2, 10 EGTA, 10 HEPES, 5 Na2ATP, pH 7.2, adjusted to 315 mOsm with sucrose.
After establishing the whole-cell configuration, cells were held at −80 mV throughout the experiment. A current-voltage (I-V) protocol stepping from −100 to +20 mV for 1 second was applied to measure Kv7.2/Kv7.3 currents, each step was followed by a 200 ms pulse to 0 mV to measure the tail currents. From the I-V protocol a Boltzmann fit was applied to generate activation curves. Data were sampled at 25 kHz and filtered at 5 kHz (Bessel). Data were produced using multihole QChips. The I-V protocol was applied several times to establish the response in control conditions (typically 0.3% DMSO) and in the presence of the test compound.
Data were reviewed in Sophion Analyser version 6.5.2 (Sophion Bioscience) for recording quality and filters were applied to remove any failed wells. Leak subtraction was applied to all recordings. Data filters for multihole QChips were typically: seal resistance>4 MΩ, capacitance >20 pF, baseline VHalf between 0 to −40 mV, baseline holding current between −2 to 2 nA, baseline steady state current at 20 mV >4 nA unless otherwise stated.
Analysis of Data for Assessment of Potency
10 concentrations of test compounds were applied to individual wells in quadruplicate to assess potency as a 1 in 3 dilution series from the maximal concentration of 30 μM. The average shift in the voltage for half activation (Vhalf) for each concentration was used to generate concentration-response curves fitted with a 4-parameter logistic model to estimate the EC50 from the point of inflection of the curve and the maximal shift in the Vhalf from the top of the curve.
The lower the EC50 value, the higher the potency of the analyzed compound. The selectivity criteria is assigned on the basis of the maximal shift in the Vhalf at 30 μM. […] In Table 3, ND means that selectivity was not determined.

Structure (SMILES) | EC50 [nM] | Kv7.2/7.3 ΔV1/2 [mV]
Cc1cccc2c1[C@H](NC(=O)NCc1ccnc(OCC(F)(F)F)c1)CC2 [Compound 168] | 2240 | 37.25
Cc1cccc2c1[C@@H](NC(=O)NCc1ccnc(OCC(F)(F)F)c1)CC2 [Compound 169] | 1400 | 24.08
O=C(NCc1ccnc(OCC(F)(F)F)c1)N[C@H]1CSc2ccccc2C1 [Compound 173] | 330 | 31.15
O=C(NCc1ccnc(OCC(F)(F)F)c1)N[C@@H]1COc2ccccc2C1 [Compound 186] | 290 | 34.07
O=C(NCc1ccnc(OCC(F)(F)F)c1)N[C@H]1COc2ccccc2C1 [Compound 187] | 2330 | 21.99
O=C(NCc1ccnc(OCC(F)(F)F)c1)N[C@@H]1CCC[C@H]1c1ccc(F)cc1 [Compound 188] | 470 | 28.3
COc1ccc2c(c1)C[C@H](NC(=O)NCc1ccnc(OCC(F)(F)F)c1)CC2 [Compound 190] | 820 | 20.58
CC1(C)C[C@@H](NC(=O)NCc2ccnc(OCC(F)(F)F)c2)c2ccccc21 [Compound 192] | 1690 | 47.09
CC1(C)C[C@H](NC(=O)NCc2ccnc(OCC(F)(F)F)c2)c2ccccc21 [Compound 193] | 520 | 23.15
COc1cccc(N2CC[C@@H](NC(=O)NCc3ccnc(OCC(F)(F)F)c3)C2)c1 [Compound 194] | 2580 | 29.55
O=C(NCc1ccnc(OCC(F)(F)F)c1)N[C@@H]1CCO[C@@H](c2ccccc2)C1 [Compound 195] | 6670 | 39.68
O=C(NCc1ccnc(OCC(F)(F)F)c1)N[C@@H]1CC[C@H](c2ccccc2)C1 [Compound 196] | 1540 | 56.75
O=C(NCc1ccnc(OCC(F)(F)F)c1)N[C@H]1CCO[C@@H]1c1ccccc1 [Compound 197] | 7620 | 39.86
O=C(NCc1ccnc(OCC(F)(F)F)c1)N[C@H]1CC[C@@H](c2ccccc2F)C1 [Compound 198] | 1370 | 76.04
CC1(C)C[C@H](NC(=O)NCc2ccnc(OCC(F)(F)F)c2)c2ccccc2O1 [Compound 200] | 2510 | 25.04
O=C(NCc1ccnc(OCC(F)(F)F)c1)NC[C@H]1COc2ccccc2C1 [Compound 201] | 2220 | 27.95
COc1ccccc1N1CC[C@@H](NC(=O)NCc2ccnc(OCC(F)(F)F)c2)C1 [Compound 202] | 4340 | 26.02
CO[C@@H]1CCOc2c(NC(=O)NCc3ccnc(OCC(F)(F)F)c3)cccc21 [Compound 203] | 2870 | 20.92
COc1ccc([C@@H](C)NC(=O)NCc2ccnc(OCC(F)(F)F)c2)cc1 [Compound 210] | 4540 | 27.31
O=C(NCc1ccc(OC(F)(F)F)cc1)NCc1ccnc(OCC(F)(F)F)c1 [Compound 211] | 3130 | 22.62
O=C(NCc1ccnc(OCC(F)(F)F)c1)N[C@@H](C1CC1)C(F)(F)F [Compound 212] | 1490 | 41.94

Other lines, results leading:

EC50 [nM] | Kv7.2/7.3 ΔV1/2 [mV] | Structure (SMILES)
10200 | 20.68 | O=C(NCc1ccnc(OCC(F)(F)F)n1)N[C@@H]1CCc2ccc(F)cc21 [Compound 167]
1540 | 42.82 | O=C(NCc1ccnc(OCC(F)(F)F)c1)N[C@@H]1CCOc2ccc(F)cc21 [Compound 170]
1240 | 48.06 | O=C(NCc1ccnc(OCC(F)(F)F)n1)N[C@@H]1CCc2ccccc21 [Compound 171]
1980 | 55.13 | O=C(NCc1ccnc(OCC(F)(F)F)c1)N[C@@H]1CCc2sccc21 [Compound 172]
1240 | 47.65 | O=C(NCc1ccnc(OCC(F)(F)F)c1)N[C@@H]1CCSc2ccccc21 [Compound 174]
1220 | 20.52 | O=C(NCc1ccnc(OCC(F)(F)F)c1)N[C@H]1CCSc2ccccc21 [Compound 175]
1090 | 40.89 | O=C(NCc1ccnc(OCC(F)(F)F)c1)N[C@@H]1CCc2c(F)cc(F)cc21 [Compound 176]
2280 | 54.8 | COc1ccc2c(c1)CCC[C@H]2NC(=O)NCc1ccnc(OCC(F)(F)F)c1 [Compound 177]
8110 | 27.73 | COc1ccc2c(c1)CCC[C@@H]2NC(=O)NCc1ccnc(OCC(F)(F)F)c1 [Compound 178]
2000 | 33.61 | O=C(NCc1ccnc(OCC(F)(F)F)c1)N[C@@H]1CCOc2c(F)cccc21 [Compound 179]
5830 | 24.71 | O=C(NCc1ccnc(OCC(F)(F)F)n1)N[C@@H]1CCCc2ccccc21 [Compound 180]
700 | 24.16 | O=C(NCc1ccnc(OCC(F)(F)F)c1)N[C@H]1CCOc2c(F)cccc21 [Compound 181]
1550 | 37.46 | COc1ccc2c(c1)[C@H](NC(=O)NCc1ccnc(OCC(F)(F)F)c1)CCO2 [Compound 182]
2490 | 43.65 | COc1cccc2c1CCC[C@H]2NC(=O)NCc1ccnc(OCC(F)(F)F)c1 [Compound 183]
1230 | 42.17 | Cc1cccc2c1OCC[C@H]2NC(=O)NCc1ccnc(OCC(F)(F)F)c1 [Compound 184]
5390 | 22.68 | Cc1cccc2c1OCC[C@@H]2NC(=O)NCc1ccnc(OCC(F)(F)F)c1 [Compound 185]
2720 | 32.95 | O=C(NCc1ccnc(OCC(F)(F)F)c1)N[C@H]1CCOc2cccc(F)c21 [Compound 189]
1170 | 46.54 | O=C(NCc1ccnc(OCC(F)(F)F)c1)N[C@@H]1CCCc2cc(F)ccc21 [Compound 191]
1820 | 36.36 | O=C(NCc1ccnc(OCC(F)(F)F)c1)N[C@@H]1COc2c(F)cccc21 [Compound 199]
980 | 38.78 | O=C(NCc1ccnc(OCC(F)(F)F)c1)N[C@@H]1CCOc2cc(F)ccc21 [Compound 204]
7090 | 40.29 | C[C@@H](Oc1cc(CNC(=O)N[C@@H]2CCOc3ccccc32)ncn1)C(F)(F)F [Compound 205]
6780 | 33.98 | C[C@@H](Oc1cc(CNC(=O)N[C@@H]2CCOc3ccc(F)cc32)ncn1)C(F)(F)F [Compound 206]
10200 | 23.90 | C[C@@H](Oc1cc(CNC(=O)N[C@@H]2COc3ccccc32)ncn1)C(F)(F)F [Compound 207]
8150 | 23.96 | C[C@@H](Oc1cc(CNC(=O)N[C@@H]2COc3ccc(F)cc32)ncn1)C(F)(F)F [Compound 208]
9700 | 37.49 | COc1ccc2c(c1)[C@H](NC(=O)NCc1cc(O[C@H](C)C(F)(F)F)ncn1)CCO2 [Compound 209]
